According to article PMC12436592 (Nature Communications, 2025):
Several values for one entry are separate records, joined by “and”; a condition that tells them apart may be missing. Equal entries are not always repeated. Each block holds one compound with its values, some of them ahead of it.

Target: T1, hP2X7R (Homo sapiens, UniProt Q99572)
T1 sequence (Q99572 1-595): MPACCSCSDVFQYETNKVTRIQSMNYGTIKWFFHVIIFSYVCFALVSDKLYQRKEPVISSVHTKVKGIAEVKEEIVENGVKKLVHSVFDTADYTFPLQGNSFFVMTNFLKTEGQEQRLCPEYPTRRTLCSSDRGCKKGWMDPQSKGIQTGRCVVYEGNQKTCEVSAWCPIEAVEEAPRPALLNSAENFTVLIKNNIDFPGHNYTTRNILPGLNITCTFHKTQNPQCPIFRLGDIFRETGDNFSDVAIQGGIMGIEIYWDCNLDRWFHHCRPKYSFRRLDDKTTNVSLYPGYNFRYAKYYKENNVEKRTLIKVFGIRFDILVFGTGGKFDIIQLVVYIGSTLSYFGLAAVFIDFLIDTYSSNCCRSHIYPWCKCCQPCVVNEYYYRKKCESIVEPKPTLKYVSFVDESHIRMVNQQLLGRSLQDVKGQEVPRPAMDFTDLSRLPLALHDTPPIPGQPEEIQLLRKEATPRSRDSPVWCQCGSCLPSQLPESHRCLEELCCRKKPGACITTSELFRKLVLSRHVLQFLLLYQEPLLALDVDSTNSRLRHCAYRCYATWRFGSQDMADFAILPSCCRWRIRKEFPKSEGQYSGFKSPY
Experiment: Ethidium bromide accumulation in hP2X7R-expressing HEK293 cells
Format: cell-based
Parameters: expressed in transfected cells
Details: for ΔΔGexp: relative to UB-ALT-P30, from experimental pIC50 values, T = 298 K; for MAX100 (% of maximum accumulation, replicates 1-3): single replicates
Description: Human P2X7R-expressing HEK293 cells were cultured in a humidified atmosphere of 5% CO2 at 37 °C in Dulbecco’s Modification of Eagle’s Medium (DMEM; Corning) supplemented with 10% (v/v) fetal bovine serum (Corning) and 1% (v/v) antibiotic–antimycotic (Gibco)[75]. To perform the assay, the DMEM was removed, and the HEK293 cells were washed with 3 mL of 1X DPBS (Dulbecco’s Phosphate-Buffered Saline; Corning). After the removal of DPBS solution, the cells were detached from the dish with 1 mL of trypsin/EDTA (Gibco), and the cells were collected by centrifugation. The cells (density of 2.25 × 10^7) were re-suspended in 4-(2-hydroxyethyl)-1-piperazineethanesulfonic acid (HEPES)-buffered salt solution consisting of 140 mM potassium chloride, 1 mM ethylene diamine tetraacetic acid (EDTA), 5 mM glucose, 20 mM HEPES, and 0.1 mM ethidium bromide (pH 7.4). The vehicles or appropriate range of concentrations of compounds (10 μL, pre-diluted in 10% (v/v) DMSO in DW from 10 mM stock) were added to each well of 96-well black plate (Corning), and 80 μL of the cell suspension was subsequently added to each well. BzATP (10 μL, pre-diluted in DW from 10 mM stock) was then added, and the final assay volume was maintained at 100 μL. After the incubation in 5% CO2 at 37 °C for 2 h, the ethidium dye uptake was detected by measuring the fluorescence (excitation wavelength of 530 nm and emission wavelength of 590 nm) of each well using a CHAMELEON™ Multi-Technology Plate Reader. The antagonistic activities of compounds are expressed as the percentages relative to the maximum accumulation of ethidium bromide observed in the control group with the stimulation of the hP2X7R by an agonist, BzATP. The IC50 values of compounds as antagonists were calculated using nonlinear regression analysis using OriginPro 9.1 software.

[1] = BzATP 6 μM, antagonist concentration 1 (unit not given)
[2] = BzATP 6 μM, antagonist concentration 10 (unit not given)
[3] = BzATP 6 μM, antagonist concentration 50 (unit not given)
[4] = BzATP 6 μM, antagonist concentration 100 (unit not given)
[5] = BzATP 6 μM, antagonist concentration 500 (unit not given)
[6] = BzATP 6 μM, antagonist concentration 1000 (unit not given)
[7] = BzATP 7 μM, antagonist concentration 0.1 (unit not given)
[8] = BzATP 7 μM, antagonist concentration 0.5 (unit not given)
[9] = BzATP 7 μM, antagonist concentration 1 (unit not given)
[10] = BzATP 7 μM, antagonist concentration 5 (unit not given)
[11] = BzATP 7 μM, antagonist concentration 10 (unit not given)
[12] = BzATP 7 μM, antagonist concentration 100 (unit not given)

- mean % of maximum accumulation [1]: 94.223%
- mean % of maximum accumulation [2]: 86.3844%
- mean % of maximum accumulation [3]: 53.8482%
- mean % of maximum accumulation [4]: 26.7232%
- mean % of maximum accumulation [5]: 9.424%
- mean % of maximum accumulation [6]: 9.144%
- IC50 (hP2X7R, ethidium bromide accumulation, mean ± SD, triplicate): 47 ± 4 nM
- MAX100 (% of maximum accumulation, replicates 1-3) [1]: 87.3374 and 88.4652 and 106.867
- MAX100 (% of maximum accumulation, replicates 1-3) [2]: 79.5317 and 91.4204 and 88.2012
- MAX100 (% of maximum accumulation, replicates 1-3) [3]: 46.9211 and 58.6273 and 55.9961
- MAX100 (% of maximum accumulation, replicates 1-3) [4]: 22.0295 and 25.5481 and 32.5919
- MAX100 (% of maximum accumulation, replicates 1-3) [5]: 9.107 and 5.6244 and 13.5397
- MAX100 (% of maximum accumulation, replicates 1-3) [6]: 6.418 and 4.862 and 16.1509
SMILES: O=C(NNc1ccccc1Cl)C12CC3CC(CC(C3)C1)C2 [UB-ALT-P30, reference compound]
- ΔΔGexp: 0 kcal/mol

- mean % of maximum accumulation [7]: 86.0633%
- mean % of maximum accumulation [8]: 74.1428%
- mean % of maximum accumulation [9]: 59.2287%
- mean % of maximum accumulation [10]: 27.1109%
- mean % of maximum accumulation [11]: 10.5059%
- mean % of maximum accumulation [12]: 11.5505%
- MAX100 (% of maximum accumulation, replicates 1-3) [7]: 84.5638 and 89.1729 and 84.4531
- MAX100 (% of maximum accumulation, replicates 1-3) [8]: 75.8389 and 73.3083 and 73.2812
- MAX100 (% of maximum accumulation, replicates 1-3) [9]: 53.915 and 63.4586 and 60.3125
- MAX100 (% of maximum accumulation, replicates 1-3) [10]: 28.9336 and 34.5865 and 17.8125
- MAX100 (% of maximum accumulation, replicates 1-3) [11]: 10.962 and 9.774 and 10.7812
- MAX100 (% of maximum accumulation, replicates 1-3) [12]: 12.4534 and 11.7293 and 10.4688
SMILES: CC12CC3CC1(C)C1(C)CC3(C(=O)NNc3ccccc3Cl)CC21C [UB-MBX-46]
- ΔΔGexp: -2.37 ± 0.32 kcal/mol
